Drawing on US8163756B2 (priority 2004, dated 2012), this text covers IC50 for 23 molecules.

Where a name gives a salt, the structure may show the parent alone. Read-outs that look alike come from different tables or passages of the source.

What all share (format): biochemical
In assay [1] the target is T1, Abl kinase (Homo sapiens, UniProt P00519).
T1 sequence (P00519 229-512): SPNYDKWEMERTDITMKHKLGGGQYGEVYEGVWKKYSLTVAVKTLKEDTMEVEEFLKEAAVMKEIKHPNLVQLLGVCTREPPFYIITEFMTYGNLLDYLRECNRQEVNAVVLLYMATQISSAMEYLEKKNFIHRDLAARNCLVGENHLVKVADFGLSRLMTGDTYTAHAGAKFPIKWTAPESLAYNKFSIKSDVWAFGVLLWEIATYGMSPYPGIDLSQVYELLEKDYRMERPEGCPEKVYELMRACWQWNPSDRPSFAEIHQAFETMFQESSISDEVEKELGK
The assay can be described thus: Abl kinase assay A2 (as A1, 1.1 nM enzyme, 2 h pre-incubation, 0.5 mM ATP). The protocol: (§1) IC50 values were calculated from a series of percent inhibition values determined at a range of inhibitor concentrations using software routines as implemented in the GraphPad Prism software package.

Assay [2] addresses B-Raf(V599E) kinase (Homo sapiens, UniProt P15056, V600E). The assay is described as follows: B-Raf(V599E) kinase assay B1 (construct 1, MEK1 substrate, coupled spectrophotometric). On the procedure:
The test compounds were incubated with the reaction mixtureat 30° C. for 2 h. […] The reaction rate was calculated using the […] time frame. […] IC50 values were calculated from a series of percent inhibition values determined at a range of inhibitor concentrations using software routines as implemented in the GraphPad Prism software package.

Assay [3] has as its target phosphorylated p-38-alpha kinase (Homo sapiens, UniProt Q16539). The assay is described as follows: P-38 alpha kinase assay P1 (coupled spectrophotometric, 2 h pre-incubation).
Assay [4] has as its target KDR kinase (Homo sapiens, UniProt P35968, DEL940-989/E990V). The assay can be described thus: KDR kinase assay K1 (pyruvate kinase/lactate dehydrogenase coupled, spectrophotometric). Particulars: Method K1; read-out: KDR Data (IC50). The protocol:
as §1

Setting [5] is: Method A2, read-out: Abl Data (IC50).
The mark [6] stands for this setting: method P1 (2 h pre-incubation), read-out: P-38 Data.

phosphorylated p-38-alpha kinase, sequence (Q16539 1-360 isoform Q16539-2): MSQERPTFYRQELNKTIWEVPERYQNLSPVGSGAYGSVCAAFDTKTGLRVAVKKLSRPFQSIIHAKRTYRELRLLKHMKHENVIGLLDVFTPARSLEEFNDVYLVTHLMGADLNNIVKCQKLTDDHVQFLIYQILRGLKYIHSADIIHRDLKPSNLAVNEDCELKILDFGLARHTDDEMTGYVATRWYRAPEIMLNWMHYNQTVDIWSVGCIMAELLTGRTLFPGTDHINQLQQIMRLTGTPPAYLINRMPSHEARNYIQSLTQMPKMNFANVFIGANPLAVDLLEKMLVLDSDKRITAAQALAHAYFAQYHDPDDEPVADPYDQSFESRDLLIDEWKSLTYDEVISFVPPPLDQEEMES
B-Raf(V599E) kinase, sequence (P15056 with tags, fused parts or gaps V600E): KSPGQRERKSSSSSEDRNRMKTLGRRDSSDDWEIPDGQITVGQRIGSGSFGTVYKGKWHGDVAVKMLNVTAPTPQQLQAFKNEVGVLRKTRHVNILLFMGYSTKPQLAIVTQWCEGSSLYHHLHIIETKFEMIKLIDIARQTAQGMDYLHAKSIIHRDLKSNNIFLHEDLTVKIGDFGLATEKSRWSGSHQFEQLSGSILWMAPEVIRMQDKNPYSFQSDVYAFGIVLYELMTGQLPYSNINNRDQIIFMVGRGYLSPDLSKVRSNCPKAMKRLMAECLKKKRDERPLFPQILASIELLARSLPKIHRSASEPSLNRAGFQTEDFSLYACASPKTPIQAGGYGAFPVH
KDR kinase, sequence (P35968 with tags, fused parts or gaps DEL940-989/E990V): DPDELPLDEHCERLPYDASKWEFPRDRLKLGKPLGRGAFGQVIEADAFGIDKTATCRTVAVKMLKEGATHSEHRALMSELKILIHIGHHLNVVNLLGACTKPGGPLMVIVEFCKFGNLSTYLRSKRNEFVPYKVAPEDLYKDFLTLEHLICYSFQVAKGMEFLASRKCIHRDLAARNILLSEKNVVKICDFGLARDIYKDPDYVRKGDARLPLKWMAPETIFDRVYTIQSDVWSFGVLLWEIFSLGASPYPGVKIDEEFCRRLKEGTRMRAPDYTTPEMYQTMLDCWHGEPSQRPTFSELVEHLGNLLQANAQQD

Turning to `Cc1ccc(NC(=O)Nc2cc(C(C)(C)C)nn2-c2ccc3c(c2)CCNC3)cc1Nc1nccc(-c2cccnc2)n1` [Example 153, 1-(3-t-butyl-1-(1,2,3,4-tetrahydroisoquinolin-6-yl)-1H-pyrazol-5-yl)-3-(4-methyl-3-(4-(pyridin-3-yl)pyrimidin-2-ylamino)phenyl)urea dihydrochloride], the IC50 in assay [1] amounted to 1.2 nM; in assay [2], 27 nM.
On to `CC(C)(C)c1cc(NC(=O)Nc2cc(F)c(F)cc2F)n(-c2ccc3c(c2)CCNC3)n1` [Example 146, 1-(3-t-butyl-1-(1,2,3,4-tetrahydroiso-quinolin-6-yl)-1H-pyrazol-5-yl)-3-(2,4,5-trifluorophenyl)-urea], for which the IC50 was 190 nM in assay [1] (setting [5]) and 8.8 nM in assay [2].
Taken in the same sequence, the figures for `CC(C)(C)c1cc(NC(=O)Nc2cc(F)c(F)cc2F)n(-c2cc(CC(N)=O)c3ccccc3c2)n1` [Example 81, 1-(1-(4-(2-amino-2-oxoethyl)naphthalen-2-yl)-3-t-butyl-1H-pyrazol-5-yl)-3-(2,4,5-trifluorophenyl)urea] were 120 nM and 4.1 nM.
With `CNC(=O)c1cc(Oc2ccc(NC(=O)Nc3cc(C(C)(C)C)nn3-c3ccc4nc(N5CCNCC5)ccc4c3)cc2)ccn1` [Example 170, 1-(3-t-butyl-1-(2-(piperazin-1-yl)quinolin-6-yl)-1H-pyrazol-5-yl)-3-(4-(2-(methylcarbamoyl)pyridin-4-yloxy)phenyl)urea], the results for the IC50 in assay [1] (setting [5]) and in assay [2] were 1.8 nM and 40 nM, respectively.
Take `CC(C)(C)c1cc(NC(=O)Nc2cc(F)c(F)cc2F)n(-c2cc(CC(=O)NCC(O)CO)c3ccccc3c2)n1` (centres unmarked) [Example 94, 1-(3-t-butyl-1-(4-(2-(2,3-dihydroxypropyl-amino)-2-oxoethyl)naphthalen-2-yl)-1H-pyrazol-5-yl)-3-(2,4,5-trifluorophenyl)urea]: the figures for the IC50 in assay [1] (setting [5]), in assay [2] and in assay [3] (setting [6]) were 130 nM, 4.8 nM and 68 nM, respectively.
For `CC(C)(C)c1cc(NC(=O)Nc2cccc(Cl)c2Cl)n(-c2ccc3c(c2)CNCC3)n1` [Example 123, 1-[3-t-butyl-1-(1,2,3,4-tetrahydroisoquinolin-7-yl)-1H-pyrazol-5-yl]-3-(2,3-dichloro-phenyl)urea], the results for the IC50 in assay [1] (setting [5]), in assay [4] and in assay [2] were 290 nM, 190 nM and 4.9 nM, respectively.
For the molecule `CNC(=O)c1cc(Oc2ccc(NC(=O)Nc3cc(C(C)(C)C)nn3-c3ccc4nc(NCCN)ccc4c3)cc2)ccn1` [Example 172, 1-(1-(2-(2-aminoethylamino)quinolin-6-yl)-3-t-butyl-1H-pyrazol-5-yl)-3-(4-(2-(methylcarbamoyl)pyridin-4-yloxy)phenyl)urea], the IC50 stood at 1.9 nM in assay [1] (setting [5]) and 29 nM in assay [2].
Take `CNC(=O)c1cc(Oc2ccc(NC(=O)Nc3cc(C(C)(C)C)nn3-c3ccc4nc(N5CC[C@@H](N(C)C)C5)ccc4c3)cc2)ccn1` [Example 173, 1-(3-t-butyl-1-(2-((R)-3-(dimethylamino)pyrrolidin-1-yl)quinolin-6-yl)-1H-pyrazol-5-yl)-3-(4-(2-(methylcarbamoyl)pyridin-4-yloxy)phenyl)urea]: the results for the IC50 in assay [1] (setting [5]) and in assay [2] were 4.2 nM and 63 nM, respectively.
In the same order, the values of `CC(C)(C)c1cc(NC(=O)Nc2cccc(Oc3cccnc3)c2)n(-c2cc(CC(=O)NCC(O)CO)c3ccccc3c2)n1` (centres unmarked) [Example 97, 1-(3-t-butyl-1-(4-(2-(2,3-dihydroxypropyl-amino)-2-oxoethyl)naphthalen-2-yl)-1H-pyrazol-5-yl)-3-(3-(pyridin-3-yloxy)phenyl)urea] are 1.5 nM and 7.2 nM.
On to `CNC(=O)c1cc(Oc2ccc(NC(=O)Nc3cc(C(C)(C)C)nn3-c3ccc4c(c3)CCNC4)cc2)ccn1` [Example 148, 1-(3-t-butyl-1-(1,2,3,4-tetrahydroisoquinolin-6-yl)-1H-pyrazol-5-yl)-3-(4-(2-(methylcarbamoyl)pyridin-4-yloxy)phenyl)urea], for which the IC50 in assay [1] (setting [5]) stood at 1.2 nM; in assay [2], 31 nM.
As to `Cn1c(=O)c(-c2cccc(NC(=O)Nc3cc(C(C)(C)C)nn3-c3ccc4c(c3)CCC(=O)N4)c2)cc2cncnc21` [Example 132, 1-(3-t-butyl-1-(2-oxo-1,2,3,4-tetrahydroquinolin-6-yl)-1H-pyrazol-5-yl)-3-(3-(8-methyl-7-oxo-7,8-dihydropyrido[2,3-d]pyrimidin-6-yl)phenyl)urea], the IC50 in assay [1] (setting [5]) stood at 13 nM; in assay [2], 4.8 nM; in assay [3] (setting [6]), 59 nM.
For `CC(C)(C)c1cc(NC(=O)Nc2cc(F)cc(F)c2F)n(-c2cc(CO)c3ccccc3c2)n1` [Example 65, 1-(3-t-butyl-1-(4-(hydroxymethyl)naphthalen-2-yl)-1H-pyrazol-5-yl)-3-(2,3,5-trifluorophenyl)urea], the IC50 in assay [1] (setting [5]) was found to be 110 nM; in assay [2] it was 3 nM.
Consider `CC(C)(C)c1cc(NC(=O)Nc2cccc(C#N)c2)n(-c2cc(CN)c3ccccc3c2)n1` [Example 73, 1-(1-(4-(aminomethyl)naphthalen-2-yl)-3-t-butyl-1H-pyrazol-5-yl)-3-(3-cyanophenyl)urea], for which the IC50 in assay [1] (setting [5]) stood at 190 nM; in assay [2], 45 nM.
Regarding `CC(C)(C)c1cc(NC(=O)Nc2cccc(Oc3cncc(Cl)c3)c2)n(-c2ccc3c(c2)CCNC3)n1` [Example 150, 1-(3-t-butyl-1-(1,2,3,4-tetrahydroisoquinolin-6-yl)-1H-pyrazol-5-yl)-3-(3-(5-chloropyridin-3-yloxy)phenyl)urea], the IC50 in assay [1] (setting [5]) worked out at 1.3 nM; in assay [2], 4.7 nM.
Consider `Cn1c(=O)c(-c2cccc(NC(=O)Nc3cc(C(C)(C)C)nn3-c3ccc4c(c3)CC(C(N)=O)NC4)c2)cc2cncnc21` (centres unmarked) [Example 185, 1-(3-t-butyl-1-(3-carbamoyl-1,2,3,4-tetrahydroisoquinolin-6-yl)-1H-pyrazol-5-yl)-3-(3-(8-methyl-7-oxo-7,8-dihydropyrido[2,3-d]pyrimidin-6-yl)phenyl)urea dihydrochloride], for which the IC50 in assay [1] turned out to be 2.7 nM; in assay [2], 6.9 nM; in assay [3], 23 nM.
Regarding `Cn1c(=O)c(-c2cccc(NC(=O)Nc3cc(C(C)(C)C)nn3-c3ccc4c(c3)CCNC4)c2)cc2cncnc21` [Example 149, 1-(3-t-butyl-1-(1,2,3,4-tetrahydroisoquinolin-6-yl)-1H-pyrazol-5-yl)-3-(3-(8-methyl-7-oxo-7,8-dihydropyrido[2,3-d]pyrimidin-6-yl)phenyl)urea], the IC50 in assay [1] (setting [5]) is 1.2 nM; in assay [2], 9.3 nM.
Turning to `Cn1c(=O)c(-c2cccc(NC(=O)Nc3cc(C4CCCC4)nn3-c3ccc4[nH]c(=O)ccc4c3)c2)cc2cncnc21` [Example 162, 1-(3-cyclopentyl-1-(2-oxo-1,2-dihydroquinolin-6-yl)-1H-pyrazol-5-yl)-3-(3-(8-methyl-7-oxo-7,8-dihydropyrido[2,3-d]pyrimidin-6-yl)phenyl)urea], the IC50 came out at 80 nM in assay [1] (setting [5]) and 6.7 nM in assay [2].
Taken in the same sequence, the figures for `CC(C)(C)c1cc(NC(=O)Nc2cccc(Cl)c2Cl)n(-c2ccc3nc(N4CCNCC4)ccc3c2)n1` [Example 168, 1-(3-t-butyl-1-(2-(piperazin-1-yl)quinolin-6-yl)-1H-pyrazol-5-yl)-3-(2,3-dichlorophenyl)urea] were 1100 nM and 30 nM.
For `CC(C)(C)c1cc(NC(=O)Nc2cc(F)cc(F)c2F)n(-c2cc(CC(=O)NCC(O)CO)c3ccccc3c2)n1` (centres unmarked) [Example 95, 1-(3-t-butyl-1-(4-(2-(2,3-dihydroxypropyl-amino)-2-oxoethyl)naphthalen-2-yl)-1H-pyrazol-5-yl)-3-(2,3,5-trifluorophenyl)urea], the IC50 was found to be 56 nM in assay [1] (setting [5]) and 2.9 nM in assay [2].
As for `CNC(=O)c1cc(Oc2ccc(NC(=O)Nc3cc(C(C)(C)C)nn3-c3ccc4[nH]c(=O)ccc4c3)cc2)ccn1` [Example 159, 1-(3-t-butyl-1-(2-oxo-1,2-dihydroquinolin-6-yl)-1H-pyrazol-5-yl)-3-(4-(2-(methylcarbamoyl)pyridin-4-yloxy)phenyl)urea], the IC50 in assay [1] (setting [5]) worked out at 2.3 nM; in assay [2] it was 14 nM; in assay [3] (setting [6]), 72 nM.
On to `CNC(=O)c1cc(Oc2ccc(NC(=O)Nc3cc(C(C)(C)C)nn3-c3ccc4nc(N(C)C)ccc4c3)cc2)ccn1` [Example 175, 1-(3-t-butyl-1-(2-(dimethylamino)quinolin-6-yl)-1H-pyrazol-5-yl)-3-(4-(2-(methylcarbamoyl)pyridin-4-yloxy)phenyl)urea], for which the IC50 in assay [1] (setting [5]) turned out to be 1.5 nM; in assay [2], 30 nM; in assay [3] (setting [6]) it was 160 nM.
For `CNC(=O)c1cc(Oc2ccc(NC(=O)Nc3cc(C4CCCC4)nn3-c3ccc4[nH]c(=O)ccc4c3)cc2)ccn1` [Example 163, 1-(3-cyclopentyl-1-(2-oxo-1,2-dihydroquinolin-6-yl)-1H-pyrazol-5-yl)-3-(4-(2-(methylcarbamoyl)pyridin-4-yloxy)phenyl)urea], the IC50 was found to be 6.3 nM in assay [1] (setting [5]) and 18 nM in assay [2].
Consider `CC(C)(C)c1cc(NC(=O)Nc2cccc(Oc3cccnc3)c2)n(-c2cc(CO)c3ccccc3c2)n1` [Example 67, 1-(3-t-butyl-1-(4-(hydroxymethyl)naphthalen-2-yl)-1H-pyrazol-5-yl)-3-(3-(pyridin-3-yloxy)phenyl)urea], for which the IC50 in assay [1] (setting [5]) was 1 nM; in assay [2] it was 4.8 nM; in assay [3] (setting [6]), 35 nM.
